Reference: ChEMBL document CHEMBL6178012, “Discovery of RP-1664: A First-in-Class Orally Bioavailable, Selective PLK4 Inhibitor” (J Med Chem, 2025)
Values belong to the molecule of their own block, whether it stands above or below them.

How the values were obtained:
in vitro [1] = details: mouse, liver microsomes
in vitro [2] = details: dog, MDCK
MCF7 = assay: cells; details: Homo sapiens
in vitro [3] = details: human, cryopreserved hepatocytes
in vivo [4] = details: female, CD-1, mouse, po, 5 mg/kg
in vivo [5] = details: female, CD-1, mouse, iv, 1 mg/kg
in vitro [6] = details: human, Caco-2
in vitro [7] = details: human, Caco-2; remark: listed apart in the source
[8] = target: T1, Serine/threonine-protein kinase PLK4 (Homo sapiens) (UniProt O00444); details: Mus musculus; SCID-Beige; CAL-148; dose lower 6.0 mg/kg, dose upper […], route po, time 4.0 day
T1 sequence (whole entry): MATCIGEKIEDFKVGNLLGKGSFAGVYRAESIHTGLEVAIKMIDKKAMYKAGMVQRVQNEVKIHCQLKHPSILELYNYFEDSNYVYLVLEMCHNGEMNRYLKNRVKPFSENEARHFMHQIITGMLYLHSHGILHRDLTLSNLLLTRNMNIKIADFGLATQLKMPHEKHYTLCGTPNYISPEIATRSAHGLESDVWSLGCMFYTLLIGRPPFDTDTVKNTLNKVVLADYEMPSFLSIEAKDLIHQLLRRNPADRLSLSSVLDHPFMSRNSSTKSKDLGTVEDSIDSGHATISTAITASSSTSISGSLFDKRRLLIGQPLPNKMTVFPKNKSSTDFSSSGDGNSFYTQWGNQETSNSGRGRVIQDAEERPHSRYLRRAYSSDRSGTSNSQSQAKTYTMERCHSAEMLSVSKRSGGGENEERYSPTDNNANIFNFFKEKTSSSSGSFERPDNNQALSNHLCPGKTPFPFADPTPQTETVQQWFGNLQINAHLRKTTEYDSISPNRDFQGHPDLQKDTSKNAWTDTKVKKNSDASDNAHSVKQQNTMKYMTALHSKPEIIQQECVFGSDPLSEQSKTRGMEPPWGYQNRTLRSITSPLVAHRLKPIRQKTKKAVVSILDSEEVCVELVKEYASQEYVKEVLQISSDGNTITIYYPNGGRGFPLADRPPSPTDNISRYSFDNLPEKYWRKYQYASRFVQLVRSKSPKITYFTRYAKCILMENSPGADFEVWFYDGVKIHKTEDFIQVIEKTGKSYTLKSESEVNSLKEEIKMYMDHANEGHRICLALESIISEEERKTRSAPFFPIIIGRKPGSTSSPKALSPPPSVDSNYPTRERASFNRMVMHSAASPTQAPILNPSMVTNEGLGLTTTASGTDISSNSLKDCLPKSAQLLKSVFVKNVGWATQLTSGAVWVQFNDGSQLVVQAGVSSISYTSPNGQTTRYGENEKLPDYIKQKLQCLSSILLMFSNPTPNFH

[9] = target: T1, Serine/threonine-protein kinase PLK4 (Homo sapiens); details: Mus musculus; SCID-Beige; CAL-148; dose lower 6.0 mg/kg, dose upper […], route po, time 7.0 day
in vivo [10] = details: male, Sprague-Dawley, rat, po
in vivo [11] = details: male, Beagle, dog, po, 1.15 mg/kg
in vivo [12] = details: male, Beagle, dog, iv, 0.5 mg/kg
in vivo [13] = details: cynomolgus monkey, po, 1.25 mg/kg
in vivo [14] = details: cynomolgus monkey, iv, 0.5 mg/kg
in vitro [15] = details: rat, liver microsomes
in vitro [16] = details: dog, liver microsomes
in vitro [17] = details: rhesus monkey, liver microsomes
in vitro [18] = details: human, liver microsomes
in vitro [19] = details: mouse, cryopreserved hepatocytes
in vitro [20] = details: rat, cryopreserved hepatocytes
in vitro [21] = details: dog, cryopreserved hepatocytes
in vitro [22] = details: rhesus monkey, cryopreserved hepatocytes

SMILES: Cc1cc(Nc2nc(N(C)c3c(F)cc(S(C)(=O)=O)cc3F)nc(N3CCOCC3)c2C2CC2)n[nH]1
EC50 (MCF7): 150 nM | hepatocyte CLint at 1 µM (in vitro [3]): 50.9 µL/min/1e6 cells

SMILES: CN(c1nc(Nc2cc(C(F)F)[nH]n2)c(C2CC2)c(-c2cnn(C)c2)n1)c1c(F)cc(S(C)(=O)=O)cc1F
EC50 (MCF7): 860 nM

SMILES: COc1c(Nc2cc(C)[nH]n2)nc(Sc2ccc(S(C)(=O)=O)cc2)nc1-c1cnn(C)c1
microsomal CLint at 1 µM (in vitro [1]): < 7.7 µL/min/mg

SMILES: Cc1cc(Nc2nc(N(C)c3c(F)cc(S(C)(=O)=O)cc3F)nc(-c3cc(C(C)(C)O)n(C)n3)c2C2CC2)n[nH]1
EC50 (MCF7): 23 nM | bioavailability at 24 h (in vivo [4]): 55% | clearance at 24 h (in vivo [5]): 12 mL/min/kg | hepatocyte CLint at 1 µM (in vitro [3]): 6 µL/min/1e6 cells | Papp at […], 10 µM (in vitro [6]): 7.8 ×10⁻⁶ cm/s | efflux ratio at […], 10 µM (in vitro [7]): 6.9

SMILES: Cc1cc(Nc2nc(Nc3ccc(S(C)(=O)=O)cc3F)nc(-c3cnn(C)c3)c2C2CC2)n[nH]1
EC50 (MCF7): 1300 nM

SMILES: Cc1cc(Nc2nc(N(C)c3c(F)cc(S(C)(=O)=O)cc3F)nc(-c3cnn(C)c3CO)c2C2CC2)n[nH]1
EC50 (MCF7): 140 nM | bioavailability at 24 h (in vivo [4]): 23% | clearance at 24 h (in vivo [5]): 15 mL/min/kg | hepatocyte CLint at 1 µM (in vitro [3]): 6 µL/min/1e6 cells

SMILES: C#Cc1cc(Nc2nc(N(C)c3c(F)cc(S(C)(=O)=O)cc3F)nc(-c3cnn(C)c3)c2C2CC2)n[nH]1
EC50 (MCF7): 230 nM | hepatocyte CLint at 1 µM (in vitro [3]): 20.4 µL/min/1e6 cells

SMILES: COc1c(Nc2cc(C)[nH]n2)nc(Sc2ccc(S(C)(=O)=O)cc2F)nc1N1CCCCC1
microsomal CLint at 1 µM (in vitro [1]): 47 µL/min/mg | Papp A→B at 2 h, 1 µM (in vitro [2]): 8.1 ×10⁻⁶ cm/s

SMILES: Cc1cc(Nc2nc(N(C)c3c(F)cc(S(C)(=O)=O)cc3F)nc(-c3cn(C)c(C4CC4)n3)c2C2CC2)n[nH]1
EC50 (MCF7): 34 nM | bioavailability at 24 h (in vivo [4]): > 100% | clearance at 24 h (in vivo [5]): 9 mL/min/kg | hepatocyte CLint at 1 µM (in vitro [3]): 7.5 µL/min/1e6 cells | Papp at […], 10 µM (in vitro [6]): 28 ×10⁻⁶ cm/s | efflux ratio at […], 10 µM (in vitro [7]): 2.5

SMILES: Cc1cc(Nc2nc(N(C)c3ccc(S(C)(=O)=O)cc3F)nc(-c3cnn(C)c3)c2C2CC2)n[nH]1
EC50 (MCF7): 430 nM

SMILES: Cc1cc(Nc2nc(Sc3ccc(S(C)(=O)=O)cc3F)nc(-c3cnn(C)c3)c2C2CC2)n[nH]1
EC50 (MCF7): 1700 nM

SMILES: Cc1cc(Nc2nc(N(C)c3ccc(S(=O)(=O)C4CC4)cc3F)nc(-c3cnn(C)c3)c2C2CC2)n[nH]1
EC50 (MCF7): 210 nM | hepatocyte CLint at 1 µM (in vitro [3]): 8.2 µL/min/1e6 cells

SMILES: COc1c(Nc2cc(C)[nH]n2)nc(Sc2ccc(S(C)(=O)=O)cc2F)nc1N1CCOCC1
microsomal CLint at 1 µM (in vitro [1]): 31 µL/min/mg | Papp A→B at 2 h, 1 µM (in vitro [2]): 14 ×10⁻⁶ cm/s

SMILES: COc1c(Nc2cc(C)[nH]n2)nc(Sc2ccc(S(C)(=O)=O)cc2F)nc1-c1cnn(C)c1
EC50 (MCF7): 890 nM | microsomal CLint at 1 µM (in vitro [1]): < 7.7 µL/min/mg

Further lines, results first:

microsomal CLint at 1 µM (in vitro [1]): > 416 µL/min/mg | Papp A→B at 2 h, 1 µM (in vitro [2]): 0.1 ×10⁻⁶ cm/s
SMILES: COc1c(Nc2cc(C)[nH]n2)nc(Sc2ccc(S(=O)(=O)Cc3cccc([N+](=O)[O-])c3F)cc2F)nc1N1CCCCC1

EC50 (MCF7): 2500 nM
SMILES: Cc1cc(Nc2nc(Oc3ccc(S(C)(=O)=O)cc3F)nc(-c3cnn(C)c3)c2C2CC2)n[nH]1

EC50 (MCF7): 92 nM | hepatocyte CLint at 1 µM (in vitro [3]): 51.5 µL/min/1e6 cells
SMILES: Cc1cc(Nc2nc(N(C)c3c(F)cc(S(C)(=O)=O)cc3F)nc(-c3ccnnc3)c2C2CC2)n[nH]1

EC50 (MCF7): 67 nM
SMILES: Cc1cc(Nc2nc(N(C)c3c(F)cc(S(C)(=O)=O)c(F)c3F)nc(-c3cnn(C)c3)c2C2CC2)n[nH]1

EC50 (MCF7): 65 nM | bioavailability at 24 h (in vivo [4]): > 100% | clearance at 24 h (in vivo [5]): 7 mL/min/kg | hepatocyte CLint at 1 µM (in vitro [3]): 5.3 µL/min/1e6 cells | Papp at […], 10 µM (in vitro [6]): 28 ×10⁻⁶ cm/s | efflux ratio at […], 10 µM (in vitro [7]): 1.1
SMILES: Cc1cc(Nc2nc(N(C)c3c(F)cc(S(C)(=O)=O)cc3F)nc(-c3cnn(C)c3)c2C2CC2)n[nH]1

EC50 (MCF7): 180 nM
SMILES: Cc1cc(Nc2nc(N(C)c3ccc(S(C)(=O)=O)cc3Cl)nc(-c3cnn(C)c3)c2C2CC2)n[nH]1

EC50 (MCF7): 83 nM | bioavailability at 24 h (in vivo [4]): > 100% | clearance at 24 h (in vivo [5]): 10 mL/min/kg | hepatocyte CLint at 1 µM (in vitro [3]): 50.1 µL/min/1e6 cells
SMILES: Cc1cc(Nc2nc(N(C)c3c(F)cc(S(C)(=O)=O)cc3F)nc(-c3cn(C)nc3C)c2C2CC2)n[nH]1

inhibition [8]: Dose-dependent-effect | inhibition [9]: Dose-dependent-effect | EC50 (MCF7): 51 nM | bioavailability at 24 h (in vivo [4]): ≥ 100% | clearance at 24 h (in vivo [5]): 11 mL/min/kg | bioavailability at 24 h (in vivo [10]): 28% | bioavailability at 24 h (in vivo [11]): 98% | clearance at 24 h (in vivo [12]): 30 mL/min/kg | bioavailability at 24 h (in vivo [13]): 96% | clearance at 24 h (in vivo [14]): 14 mL/min/kg | microsomal CLint at 1 µM (in vitro [1]): < 7.7 µL/min/mg | hepatocyte CLint at 1 µM (in vitro [3]): < 3.8 µL/min/1e6 cells | Papp at […], 10 µM (in vitro [6]): 4.6 ×10⁻⁶ cm/s | efflux ratio at […], 10 µM (in vitro [7]): 8.1 | microsomal CLint at 1 µM (in vitro [15]): < 7.7 µL/min/mg | microsomal CLint at 1 µM (in vitro [16]): < 7.7 µL/min/mg | microsomal CLint at 1 µM (in vitro [17]): < 7.7 µL/min/mg | microsomal CLint at 1 µM (in vitro [18]): < 7.7 µL/min/mg | hepatocyte CLint at 1 µM (in vitro [19]): < 3.8 µL/min/1e6 cells | hepatocyte CLint at 1 µM (in vitro [20]): < 3.8 µL/min/1e6 cells | hepatocyte CLint at 1 µM (in vitro [21]): < 3.8 µL/min/1e6 cells | hepatocyte CLint at 1 µM (in vitro [22]): < 3.8 µL/min/1e6 cells
SMILES: Cc1cc(Nc2nc(N(C)c3c(F)cc(S(C)(=O)=O)cc3F)nc(-c3cn(C)cn3)c2C2CC2)n[nH]1

EC50 (MCF7): 160 nM | hepatocyte CLint at 1 µM (in vitro [3]): 42 µL/min/1e6 cells
SMILES: Cc1cc(Nc2nc(N(C)c3cc(F)c(S(C)(=O)=O)cc3F)nc(-c3cnn(C)c3)c2C2CC2)n[nH]1

EC50 (MCF7): 35 nM | bioavailability at 24 h (in vivo [4]): 40% | clearance at 24 h (in vivo [5]): 3 mL/min/kg | hepatocyte CLint at 1 µM (in vitro [3]): < 3.8 µL/min/1e6 cells | Papp at […], 10 µM (in vitro [6]): 12 ×10⁻⁶ cm/s | efflux ratio at […], 10 µM (in vitro [7]): 4.4
SMILES: Cc1cc(Nc2nc(N(C)c3c(F)cc(S(C)(=O)=O)cc3F)nc(-c3cn4c(n3)COCC4)c2C2CC2)n[nH]1

hepatocyte CLint at 1 µM (in vitro [3]): 19.4 µL/min/1e6 cells
SMILES: Cc1cc(Nc2nc(N(C)c3c(F)cc(S(N)(=O)=O)cc3F)nc(-c3cnn(C)c3)c2C2CC2)n[nH]1

hepatocyte CLint at 1 µM (in vitro [3]): 12.8 µL/min/1e6 cells
SMILES: Cc1cc(Nc2nc(N(C)c3c(F)cc(S(C)(=O)=O)cc3F)nc(-c3cn(C)nc3CO)c2C2CC2)n[nH]1

EC50 (MCF7): 57 nM | hepatocyte CLint at 1 µM (in vitro [3]): 12 µL/min/1e6 cells
SMILES: CN(c1nc(Nc2cc(C3CC3)[nH]n2)c(C2CC2)c(-c2cnn(C)c2)n1)c1c(F)cc(S(C)(=O)=O)cc1F
